Results published in publication PMC10838953.

Assays:
PIP5K2C = PIP5K2C (Homo sapiens, UniProt Q8TBX8); assay: biochemical; settings: read-out: %Ctrl @ 2000nM
MARK3 = MARK3 (Homo sapiens, UniProt P27448); assay: biochemical; settings: read-out: %Ctrl @ 2000nM
HUNK = HUNK (Homo sapiens, UniProt P57058); assay: biochemical; settings: read-out: %Ctrl @ 2000nM
YANK3 = YANK3 (Homo sapiens, UniProt Q86UX6); assay: biochemical; settings: read-out: %Ctrl @ 2000nM
CAMK1G = CAMK1G (Homo sapiens, UniProt Q96NX5); assay: biochemical; settings: read-out: %Ctrl @ 2000nM
LIMK1 = LIMK1 (Homo sapiens, UniProt P53667); assay: biochemical; settings: read-out: %Ctrl @ 2000nM
Chain of LIMK1 (P53667 whole entry): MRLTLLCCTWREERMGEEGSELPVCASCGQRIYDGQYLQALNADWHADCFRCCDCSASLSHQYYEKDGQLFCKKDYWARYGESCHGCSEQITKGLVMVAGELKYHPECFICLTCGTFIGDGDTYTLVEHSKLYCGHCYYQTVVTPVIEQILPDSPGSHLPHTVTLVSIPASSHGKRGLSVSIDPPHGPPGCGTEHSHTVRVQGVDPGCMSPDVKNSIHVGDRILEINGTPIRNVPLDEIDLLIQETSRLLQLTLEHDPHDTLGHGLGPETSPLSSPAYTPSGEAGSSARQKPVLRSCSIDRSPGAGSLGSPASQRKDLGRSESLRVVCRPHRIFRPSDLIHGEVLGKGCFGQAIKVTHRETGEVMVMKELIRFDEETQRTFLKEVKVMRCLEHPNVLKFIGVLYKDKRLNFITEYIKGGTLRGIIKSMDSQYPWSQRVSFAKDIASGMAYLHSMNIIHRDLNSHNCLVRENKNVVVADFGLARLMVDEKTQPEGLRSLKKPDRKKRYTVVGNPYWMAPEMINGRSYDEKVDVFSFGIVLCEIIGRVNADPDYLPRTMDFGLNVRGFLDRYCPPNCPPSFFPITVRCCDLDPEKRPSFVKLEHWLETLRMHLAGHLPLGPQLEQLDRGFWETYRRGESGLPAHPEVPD

CSNK1D = CSNK1D (Homo sapiens, UniProt P48730); assay: biochemical; settings: read-out: %Ctrl @ 2000nM
ABL2 = ABL2 (Homo sapiens, UniProt P42684); assay: biochemical; settings: read-out: %Ctrl @ 2000nM
EPHA6 = EPHA6 (Homo sapiens, UniProt Q9UF33); assay: biochemical; settings: read-out: %Ctrl @ 2000nM
YSK1 = YSK1 (Homo sapiens, UniProt O00506); assay: biochemical; settings: read-out: %Ctrl @ 2000nM
PHKG1 = PHKG1 (Homo sapiens, UniProt Q16816); assay: biochemical; settings: read-out: %Ctrl @ 2000nM
PRKD1 = PRKD1 (Homo sapiens, UniProt Q15139); assay: biochemical; settings: read-out: %Ctrl @ 2000nM
Chain of PRKD1 (Q15139 whole entry): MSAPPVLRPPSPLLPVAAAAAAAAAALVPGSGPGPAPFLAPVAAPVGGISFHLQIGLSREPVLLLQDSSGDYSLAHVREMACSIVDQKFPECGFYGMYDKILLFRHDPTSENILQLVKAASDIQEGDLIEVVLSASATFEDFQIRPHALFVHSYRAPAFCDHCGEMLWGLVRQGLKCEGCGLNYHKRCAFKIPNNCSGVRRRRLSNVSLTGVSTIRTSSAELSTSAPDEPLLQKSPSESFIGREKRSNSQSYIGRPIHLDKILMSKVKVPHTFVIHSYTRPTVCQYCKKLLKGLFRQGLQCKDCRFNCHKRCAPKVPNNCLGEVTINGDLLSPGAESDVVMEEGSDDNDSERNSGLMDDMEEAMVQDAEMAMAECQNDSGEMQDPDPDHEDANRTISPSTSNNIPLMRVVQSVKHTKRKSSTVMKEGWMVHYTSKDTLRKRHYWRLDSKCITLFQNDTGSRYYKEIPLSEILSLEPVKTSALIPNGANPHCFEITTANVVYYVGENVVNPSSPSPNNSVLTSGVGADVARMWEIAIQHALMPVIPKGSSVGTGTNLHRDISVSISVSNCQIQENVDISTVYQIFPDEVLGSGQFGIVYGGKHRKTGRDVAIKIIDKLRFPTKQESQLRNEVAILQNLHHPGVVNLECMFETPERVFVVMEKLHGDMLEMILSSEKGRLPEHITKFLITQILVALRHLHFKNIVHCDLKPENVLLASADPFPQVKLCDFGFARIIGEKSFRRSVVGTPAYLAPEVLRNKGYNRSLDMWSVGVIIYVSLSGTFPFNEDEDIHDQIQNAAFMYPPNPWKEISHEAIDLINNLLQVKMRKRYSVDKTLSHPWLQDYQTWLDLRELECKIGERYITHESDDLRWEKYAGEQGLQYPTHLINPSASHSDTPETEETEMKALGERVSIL

PRKG1 = PRKG1 (Homo sapiens, UniProt Q13976); assay: biochemical; settings: read-out: %Ctrl @ 2000nM
EGFR(L858R,T790M) = EGFR(L858R,T790M) (Homo sapiens, UniProt P00533, L858R/T790M); assay: biochemical; settings: read-out: %Ctrl @ 2000nM
Chain of EGFR(L858R,T790M) (P00533 25-1210 T790M/L858R): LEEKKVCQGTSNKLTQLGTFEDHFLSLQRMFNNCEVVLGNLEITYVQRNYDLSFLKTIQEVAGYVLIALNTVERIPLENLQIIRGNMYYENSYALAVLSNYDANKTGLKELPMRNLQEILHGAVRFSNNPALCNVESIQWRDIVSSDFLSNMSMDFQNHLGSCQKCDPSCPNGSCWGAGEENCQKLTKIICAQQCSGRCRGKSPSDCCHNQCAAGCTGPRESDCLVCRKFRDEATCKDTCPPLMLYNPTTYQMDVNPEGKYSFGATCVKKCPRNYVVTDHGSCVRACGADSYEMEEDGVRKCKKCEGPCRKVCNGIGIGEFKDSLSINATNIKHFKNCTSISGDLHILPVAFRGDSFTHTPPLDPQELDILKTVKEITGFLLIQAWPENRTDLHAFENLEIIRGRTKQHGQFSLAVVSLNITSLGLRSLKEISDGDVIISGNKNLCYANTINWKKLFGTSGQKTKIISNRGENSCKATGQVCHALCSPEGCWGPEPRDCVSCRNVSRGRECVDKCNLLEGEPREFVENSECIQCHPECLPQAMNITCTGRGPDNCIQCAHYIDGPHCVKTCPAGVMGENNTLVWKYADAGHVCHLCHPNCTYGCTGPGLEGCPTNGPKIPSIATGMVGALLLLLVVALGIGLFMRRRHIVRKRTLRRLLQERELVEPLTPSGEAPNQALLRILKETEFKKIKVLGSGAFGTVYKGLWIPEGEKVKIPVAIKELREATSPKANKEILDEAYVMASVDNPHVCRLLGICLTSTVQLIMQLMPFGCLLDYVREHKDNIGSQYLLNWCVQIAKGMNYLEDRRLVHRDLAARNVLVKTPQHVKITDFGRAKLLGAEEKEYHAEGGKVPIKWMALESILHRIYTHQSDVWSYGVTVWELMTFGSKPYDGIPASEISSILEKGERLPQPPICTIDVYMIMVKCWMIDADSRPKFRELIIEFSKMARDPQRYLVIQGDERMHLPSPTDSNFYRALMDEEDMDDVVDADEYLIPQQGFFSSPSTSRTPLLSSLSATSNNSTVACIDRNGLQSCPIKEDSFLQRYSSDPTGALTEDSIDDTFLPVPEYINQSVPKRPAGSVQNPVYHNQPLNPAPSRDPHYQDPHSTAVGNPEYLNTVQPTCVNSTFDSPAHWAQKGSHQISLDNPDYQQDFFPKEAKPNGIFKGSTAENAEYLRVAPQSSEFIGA

CDKL1 = CDKL1 (Homo sapiens, UniProt Q00532); assay: biochemical; settings: read-out: %Ctrl @ 2000nM
ADCK4 = ADCK4 (Homo sapiens, UniProt Q96D53); assay: biochemical; settings: read-out: %Ctrl @ 2000nM
[1] = target: ABL1(F317L)-phosphorylated (Homo sapiens, UniProt P00519, F317L); assay: biochemical; settings: read-out: %Ctrl @ 2000nM
FLT3(D835V) = FLT3(D835V) (Homo sapiens, UniProt P36888, D835V); assay: biochemical; settings: read-out: %Ctrl @ 2000nM
CTK = CTK (Homo sapiens, UniProt P42679); assay: biochemical; settings: read-out: %Ctrl @ 2000nM
NEK9 = NEK9 (Homo sapiens, UniProt Q8TD19); assay: biochemical; settings: read-out: %Ctrl @ 2000nM
DCAMKL1 = DCAMKL1 (Homo sapiens, UniProt O15075); assay: biochemical; settings: read-out: %Ctrl @ 2000nM
EPHA3 = EPHA3 (Homo sapiens, UniProt P29320); assay: biochemical; settings: read-out: %Ctrl @ 2000nM
RIOK2 = RIOK2 (Homo sapiens, UniProt Q9BVS4); assay: biochemical; settings: read-out: %Ctrl @ 2000nM
CSNK1G2 = CSNK1G2 (Homo sapiens, UniProt P78368); assay: biochemical; settings: read-out: %Ctrl @ 2000nM
Chain of CSNK1G2 (P78368 whole entry): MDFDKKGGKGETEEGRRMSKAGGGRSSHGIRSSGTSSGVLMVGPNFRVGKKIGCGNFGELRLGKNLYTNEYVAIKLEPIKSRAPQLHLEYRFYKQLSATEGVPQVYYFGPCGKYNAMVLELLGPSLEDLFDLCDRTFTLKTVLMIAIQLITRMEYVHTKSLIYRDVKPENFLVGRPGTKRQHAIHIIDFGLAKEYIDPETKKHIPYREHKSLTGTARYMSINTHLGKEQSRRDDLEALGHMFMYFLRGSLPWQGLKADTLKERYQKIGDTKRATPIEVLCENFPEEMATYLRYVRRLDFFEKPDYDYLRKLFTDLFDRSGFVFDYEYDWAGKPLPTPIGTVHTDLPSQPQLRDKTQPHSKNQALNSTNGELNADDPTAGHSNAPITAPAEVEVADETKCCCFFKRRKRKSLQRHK

survivin = settings: 786-O cells; 2.5-15 μM; 48 h
NDR2 = NDR2 (Homo sapiens, UniProt Q9Y2H1); assay: biochemical; settings: read-out: %Ctrl @ 2000nM
FGFR1 = FGFR1 (Homo sapiens, UniProt P11362); assay: biochemical; settings: read-out: %Ctrl @ 2000nM
PKAC-alpha = PKAC-alpha (Homo sapiens, UniProt P17612); assay: biochemical; settings: read-out: %Ctrl @ 2000nM
primary hepatocytes = assay: cells; settings: Hepatocyte, read-out: IC50 cell viability
CDC2L1 = CDC2L1 (Homo sapiens, UniProt P21127); assay: biochemical; settings: read-out: %Ctrl @ 2000nM
MEK3 = MEK3 (Homo sapiens, UniProt P46734); assay: biochemical; settings: read-out: %Ctrl @ 2000nM
DYRK1A = DYRK1A (Homo sapiens, UniProt Q13627); assay: biochemical; settings: read-out: %Ctrl @ 2000nM
PAK7 = PAK7 (Homo sapiens, UniProt Q9P286); assay: biochemical; settings: read-out: %Ctrl @ 2000nM
GSK3A = GSK3A (Homo sapiens, UniProt P49840); assay: biochemical; settings: read-out: %Ctrl @ 2000nM
SNARK = SNARK (Homo sapiens, UniProt Q9H093); assay: biochemical; settings: read-out: %Ctrl @ 2000nM
Chain of SNARK (Q9H093 whole entry): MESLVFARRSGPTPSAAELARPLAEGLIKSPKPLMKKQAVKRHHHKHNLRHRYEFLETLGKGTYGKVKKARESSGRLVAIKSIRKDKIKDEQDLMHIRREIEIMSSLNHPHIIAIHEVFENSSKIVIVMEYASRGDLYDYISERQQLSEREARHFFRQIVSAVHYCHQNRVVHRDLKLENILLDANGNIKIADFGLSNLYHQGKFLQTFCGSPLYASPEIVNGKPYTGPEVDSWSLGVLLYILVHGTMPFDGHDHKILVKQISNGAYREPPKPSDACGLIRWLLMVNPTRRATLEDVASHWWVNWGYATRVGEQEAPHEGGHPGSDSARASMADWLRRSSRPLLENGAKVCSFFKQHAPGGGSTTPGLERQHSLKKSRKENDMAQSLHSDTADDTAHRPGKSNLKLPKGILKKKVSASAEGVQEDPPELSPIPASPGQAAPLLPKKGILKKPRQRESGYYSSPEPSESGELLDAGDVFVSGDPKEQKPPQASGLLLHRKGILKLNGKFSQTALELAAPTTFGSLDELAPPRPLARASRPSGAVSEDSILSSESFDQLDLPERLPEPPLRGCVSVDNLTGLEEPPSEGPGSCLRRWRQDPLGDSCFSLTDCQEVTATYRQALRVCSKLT

MKNK2 = MKNK2 (Homo sapiens, UniProt Q9HBH9); assay: biochemical; settings: read-out: %Ctrl @ 2000nM
LRRK2 = LRRK2 (Homo sapiens, UniProt Q5S007); assay: biochemical; settings: read-out: %Ctrl @ 2000nM
WEE2 = WEE2 (Homo sapiens, UniProt P0C1S8); assay: biochemical; settings: read-out: %Ctrl @ 2000nM
PAK3 = PAK3 (Homo sapiens, UniProt O75914); assay: biochemical; settings: read-out: %Ctrl @ 2000nM
MKNK1 = MKNK1 (Homo sapiens, UniProt Q9BUB5); assay: biochemical; settings: read-out: %Ctrl @ 2000nM
Chain of MKNK1 (Q9BUB5 whole entry): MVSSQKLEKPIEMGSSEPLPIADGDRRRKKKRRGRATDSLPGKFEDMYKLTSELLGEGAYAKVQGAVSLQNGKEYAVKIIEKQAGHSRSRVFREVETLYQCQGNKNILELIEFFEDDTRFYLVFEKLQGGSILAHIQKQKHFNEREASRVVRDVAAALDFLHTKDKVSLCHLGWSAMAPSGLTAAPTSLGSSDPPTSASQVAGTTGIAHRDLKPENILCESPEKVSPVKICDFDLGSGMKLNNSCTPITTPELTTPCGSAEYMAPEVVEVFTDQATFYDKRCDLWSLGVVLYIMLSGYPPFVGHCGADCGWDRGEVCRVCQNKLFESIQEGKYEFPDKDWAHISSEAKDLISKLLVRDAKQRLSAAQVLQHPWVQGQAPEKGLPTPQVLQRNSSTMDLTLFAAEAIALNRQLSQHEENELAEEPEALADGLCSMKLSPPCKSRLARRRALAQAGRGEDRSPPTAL

HEK293 cells = settings: high concentrations
SgK110 = SgK110 (Homo sapiens, UniProt P0C264); assay: biochemical; settings: read-out: %Ctrl @ 2000nM
p38-delta = p38-delta (Homo sapiens, UniProt O15264); assay: biochemical; settings: read-out: %Ctrl @ 2000nM

Chain of HUNK (P57058 whole entry): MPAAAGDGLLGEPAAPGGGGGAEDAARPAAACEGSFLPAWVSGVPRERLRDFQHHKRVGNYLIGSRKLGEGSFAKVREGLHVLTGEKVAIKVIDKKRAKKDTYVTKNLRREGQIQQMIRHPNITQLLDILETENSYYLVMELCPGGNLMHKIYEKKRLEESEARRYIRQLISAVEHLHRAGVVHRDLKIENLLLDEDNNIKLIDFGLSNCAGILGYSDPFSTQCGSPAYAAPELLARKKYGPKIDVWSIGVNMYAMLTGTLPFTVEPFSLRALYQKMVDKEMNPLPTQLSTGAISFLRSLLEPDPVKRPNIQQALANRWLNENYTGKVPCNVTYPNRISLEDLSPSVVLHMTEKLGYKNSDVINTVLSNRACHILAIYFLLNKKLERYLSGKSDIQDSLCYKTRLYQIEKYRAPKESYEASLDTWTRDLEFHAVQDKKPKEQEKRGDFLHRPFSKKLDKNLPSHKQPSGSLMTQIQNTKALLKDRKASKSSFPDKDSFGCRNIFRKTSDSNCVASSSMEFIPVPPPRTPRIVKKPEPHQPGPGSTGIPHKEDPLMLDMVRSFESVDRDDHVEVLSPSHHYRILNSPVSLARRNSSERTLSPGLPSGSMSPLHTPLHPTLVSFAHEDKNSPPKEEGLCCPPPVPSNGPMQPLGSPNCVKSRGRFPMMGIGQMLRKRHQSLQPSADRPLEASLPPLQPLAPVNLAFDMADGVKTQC

CC(C)COC(=O)c1[nH]c2ccc(F)cc2c1-c1cn(CC2CCN(CCNS(=O)(=O)c3ccc(CC(C)C)cc3)CC2)nn1 [AB668, isobutyl 5-fluoro-3-(1-((1-(2-((4-isobutylphenyl)sulfonamido)ethyl)piperidin-4-yl)methyl)-1H-1,2,3-triazol-4-yl)-1H-indole-2-carboxylate]
remaining activity at 2 µM (PIP5K2C): 81%
remaining activity at 2 µM (MARK3): 0%
remaining activity at 2 µM (HUNK): 88%
remaining activity at 2 µM (YANK3): 92%
remaining activity at 2 µM (CAMK1G): 80%
remaining activity at 2 µM (LIMK1): 100%
remaining activity at 2 µM (CSNK1D): 89%
remaining activity at 2 µM (ABL2): 94%
remaining activity at 2 µM (EPHA6): 83%
remaining activity at 2 µM (YSK1): 82%
remaining activity at 2 µM (PHKG1): 76%
remaining activity at 2 µM (PRKD1): 100%
remaining activity at 2 µM (PRKG1): 85%
remaining activity at 2 µM (EGFR(L858R,T790M)): 83%
remaining activity at 2 µM (CDKL1): 86%
remaining activity at 2 µM (ADCK4): 80%
remaining activity at 2 µM [1]: 78%
remaining activity at 2 µM (FLT3(D835V)): 94%
remaining activity at 2 µM (CTK): 82%
remaining activity at 2 µM (NEK9): 94%
remaining activity at 2 µM (DCAMKL1): 71%
remaining activity at 2 µM (EPHA3): 86%
remaining activity at 2 µM (RIOK2): 73%
remaining activity at 2 µM (CSNK1G2): 75%
expression of survivin (survivin): reduced the expression of survivin
remaining activity at 2 µM (NDR2): 100%
remaining activity at 2 µM (FGFR1): 81%
remaining activity at 2 µM (PKAC-alpha): 84%
IC50 (primary hepatocytes): > 100 µM
remaining activity at 2 µM (CDC2L1): 90%
remaining activity at 2 µM (MEK3): 100%
remaining activity at 2 µM (DYRK1A): 99%
remaining activity at 2 µM (PAK7): 85%
remaining activity at 2 µM (GSK3A): 84%
remaining activity at 2 µM (SNARK): 94%
remaining activity at 2 µM (MKNK2): 100%
remaining activity at 2 µM (LRRK2): 65%
remaining activity at 2 µM (WEE2): 95%
remaining activity at 2 µM (PAK3): 95%
remaining activity at 2 µM (MKNK1): 63%
cytotoxicity (HEK293 cells): no cytotoxicity
remaining activity at 2 µM (SgK110): 71%
remaining activity at 2 µM (p38-delta): 96%
